Reference: US11274084B2, “3-aryl-4-amido-bicyclic [4,5,0] hydroxamic acids as HDAC inhibitors” (Valo Health, Inc., priority 2015, dated 2022)

Target: T1, HDAC6 (Homo sapiens, UniProt Q9UBN7)
T1 construct: Full length human recombinant HDAC6 protein; made in house
T1 sequence (Q9UBN7 1-1215): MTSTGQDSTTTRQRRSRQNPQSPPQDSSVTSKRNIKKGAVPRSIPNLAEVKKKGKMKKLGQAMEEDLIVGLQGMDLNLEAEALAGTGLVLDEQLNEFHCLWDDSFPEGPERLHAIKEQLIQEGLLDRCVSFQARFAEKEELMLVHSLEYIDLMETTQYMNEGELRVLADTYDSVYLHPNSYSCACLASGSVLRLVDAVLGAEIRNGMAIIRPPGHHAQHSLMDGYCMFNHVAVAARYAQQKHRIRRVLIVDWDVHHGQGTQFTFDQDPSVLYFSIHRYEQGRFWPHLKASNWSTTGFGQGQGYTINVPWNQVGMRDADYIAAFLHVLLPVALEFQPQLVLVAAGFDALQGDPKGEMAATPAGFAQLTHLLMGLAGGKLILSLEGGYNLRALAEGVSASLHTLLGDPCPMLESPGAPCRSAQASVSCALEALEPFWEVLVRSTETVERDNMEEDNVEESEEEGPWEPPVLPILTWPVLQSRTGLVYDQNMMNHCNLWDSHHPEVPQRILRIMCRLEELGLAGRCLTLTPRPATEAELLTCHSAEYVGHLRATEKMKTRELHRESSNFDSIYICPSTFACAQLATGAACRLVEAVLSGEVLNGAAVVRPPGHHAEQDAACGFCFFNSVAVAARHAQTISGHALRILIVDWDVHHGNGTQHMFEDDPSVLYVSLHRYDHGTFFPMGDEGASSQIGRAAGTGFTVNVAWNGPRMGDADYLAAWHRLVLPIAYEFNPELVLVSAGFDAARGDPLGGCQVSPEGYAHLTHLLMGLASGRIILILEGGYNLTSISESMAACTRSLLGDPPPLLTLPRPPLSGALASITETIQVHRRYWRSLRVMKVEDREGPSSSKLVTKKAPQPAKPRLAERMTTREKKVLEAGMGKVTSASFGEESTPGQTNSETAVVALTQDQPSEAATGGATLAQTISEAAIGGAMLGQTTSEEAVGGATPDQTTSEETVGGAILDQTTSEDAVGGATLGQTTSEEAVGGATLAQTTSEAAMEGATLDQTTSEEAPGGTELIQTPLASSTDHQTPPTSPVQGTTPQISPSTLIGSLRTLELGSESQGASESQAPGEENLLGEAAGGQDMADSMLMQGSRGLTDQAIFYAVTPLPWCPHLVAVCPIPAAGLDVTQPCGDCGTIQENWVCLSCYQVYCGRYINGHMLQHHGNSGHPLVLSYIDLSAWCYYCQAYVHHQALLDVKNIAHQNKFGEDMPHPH
Assay: In vitro histone deacetylase assay: enzymatic HDAC6 assay by electrophoretic mobility shift
Format: biochemical
Conditions: full length human recombinant HDAC6 1 nM, 2 μM peptide substrate RHKK(Ac)-NH2, 25° C., 12 concentrations; read-out: Inhibitory Concentration (IC50) against HDAC6, Activity Range
Protocol: The enzymatic HDAC6 assay was performed using electrophoretic mobility shift assay. […] The enzymatic reactions were assembled in 384-well plates in a total volume of 25 μL of a reaction buffer comprising. 100 mM HEPES, pH 7.5, 25 mM KCl, 0.1% bovine serum albumin, 0.01% Triton X-100, 1% DMSO (from compounds), 2 μM of the fluorescently labeled peptide substrate, and enzyme. The enzyme was added at a final concentration of 1 nM. The peptide substrate RHKK(Ac)-NH2 was used. The compounds were tested at 12 concentrations spaced by 3× dilution intervals. Negative control samples (0%-inhibition in the absence of inhibitor) and positive control samples (100%-inhibition) were assembled in replicates of four in each assay plate. The reactions were incubated at 25° C. and quenched by the addition of 45 μL of termination buffer (100 mM HEPES, pH 7.5, 0.01% Triton X-100, 0.05% SDS).
The terminated assay plates were analyzed on LabChip® 3000 microfluidic electrophoresis instrument (Perkin Elmer/Caliper Life Sciences). The fluorescence intensity of the electrophoretically separated de-acetylated product and substrate peptide was measured. Activity in each sample was determined as the product to sum ratio (PSR):P/(S+P), where P is the peak height of the product peptide and S is the peak height of the substrate peptide. Percent inhibition (Pinh) is determined using the following equation:
Pinh=(PSR0%−PSRinh)/(PSR0%−PSR100%)*100, where PSRinh is the product sum ratio in the presence of inhibitor, PSR0% is the average product sum ration in the absence of inhibitor, and PSR100% is the average product sum ratio in 100%-inhibition control samples. The IC50 values of inhibitors were determined by fitting the %-inhibition curves with 4 parameter dose-response models using XLfit 4 software.

| Structure (SMILES) | IC50 |
| --- | --- |
| Cc1ccc([C@H]2COc3cc(C(=O)NO)ccc3CN2C(=O)C2CCOCC2)cc1 [(S)-N-hydroxy-4-(tetrahydro-2H-pyran-4-carbonyl)-3-(p-tolyl)-2,3,4,5-tetrahydrobenzo[f][1,4]oxazepine-8-carboxamide] | ≤ 0.1 µM |
| O=C(NO)c1ccc2c(c1)OC[C@H](c1ccccc1)N(C(=O)C1CCCC1)C2 [(S)-4-(cyclopentanecarbonyl)-N-hydroxy-3-phenyl-2,3,4,5-tetrahydrobenzo[f][1,4]oxazepine-8-carboxamide] | ≤ 0.1 µM |
| COC1(C(=O)N2Cc3ccc(C(=O)NO)cc3OC[C@@H]2c2ccccc2)CC1 [(S)-N-hydroxy-4-(1-methoxycyclopropane-1-carbonyl)-3-phenyl-2,3,4,5-tetrahydrobenzo[f][1,4]oxazepine-8-carboxamide] | ≤ 0.1 µM |
| CO[C@H]1CC[C@@H](C(=O)N2Cc3ccc(C(=O)NO)cc3OC[C@@H]2c2ccccc2)CC1 [(S)-N-hydroxy-4-((1s,4R)-4-methoxycyclohexane-1-carbonyl)-3-phenyl-2,3,4,5-tetrahydrobenzo[f][1,4]oxazepine-8-carboxamide] | ≤ 0.1 µM |
| O=C(NO)c1ccc2c(c1)OC[C@H](c1ccccc1C(F)(F)F)N(C(=O)C1CCOCC1)C2 (single isomer, unassigned) | ≤ 0.1 µM |
| O=C(NO)c1ccc2c(c1)OC[C@H](c1ccccc1)N(C(=O)[C@@H]1CCOC1)C2 (single isomer, unassigned) | ≤ 0.1 µM |
| CC(C)C(=O)N1Cc2ccc(C(=O)NO)cc2OC[C@@H]1c1ccccc1 [(S)-N-hydroxy-4-isobutyryl-3-phenyl-2,3,4,5-tetrahydrobenzo[f][1,4]oxazepine-8-carboxamide] | ≤ 0.1 µM |
| O=C(NO)c1ccc2c(c1)OC[C@@H](c1cccc(C(F)(F)F)c1)N(C(=O)C1CCOCC1)C2 (single isomer, unassigned) | 0.1 to 0.5 µM |
| O=C(NO)c1ccc2c(c1)OC[C@@H](c1ccccc1)N(C(=O)C1CCOCC1)C2 [(R)-N-hydroxy-3-phenyl-4-(tetrahydro-2H-pyran-4-carbonyl)-2,3,4,5-tetrahydrobenzo[f][1,4]oxazepine-8-carboxamide] | > 0.5 µM |
| O=C(NO)c1ccc2c(c1)OC[C@H](c1cccc(F)c1)N(C(=O)C1CCOCC1)C2 [(S)-3-(3-fluorophenyl)-N-hydroxy-4-(tetrahydro-2H-pyran-4-carbonyl)-2,3,4,5-tetrahydrobenzo[f][1,4]oxazepine-8-carboxamide] | ≤ 0.1 µM |
| O=C(NO)c1ccc2c(c1)OC[C@@H](c1ccccc1F)N(C(=O)C1CCOCC1)C2 [(R)-3-(2-fluorophenyl)-N-hydroxy-4-(tetrahydro-2H-pyran-4-carbonyl)-2,3,4,5-tetrahydrobenzo[f][1,4]oxazepine-8-carboxamide] | 0.1 to 0.5 µM |
| O=C(NO)c1ccc2c(c1)OC[C@H](c1ccc(C(F)(F)F)cc1)N(C(=O)C1CCOCC1)C2 [(S)-N-hydroxy-4-(tetrahydro-2H-pyran-4-carbonyl)-3-(4-(trifluoromethyl)phenyl)-2,3,4,5-tetrahydrobenzo[f][1,4]oxazepine-8-carboxamide] | ≤ 0.1 µM |
| CC(=O)N1Cc2ccc(C(=O)NO)cc2OC[C@@H]1c1ccccc1 [(S)-4-acetyl-N-hydroxy-3-phenyl-2,3,4,5-tetrahydrobenzo[f][1,4]oxazepine-8-carboxamide] | ≤ 0.1 µM |
| COC(C)(C)C(=O)N1Cc2ccc(C(=O)NO)cc2OC[C@@H]1c1ccccc1 [(S)-N-hydroxy-4-(2-methoxy-2-methylpropanoyl)-3-phenyl-2,3,4,5-tetrahydrobenzo[f][1,4]oxazepine-8-carboxamide] | ≤ 0.1 µM |
| O=C(NO)c1ccc2c(c1)OC[C@H](c1ccccc1)N(C(=O)c1ccccn1)C2 [(S)-N-hydroxy-3-phenyl-4-picolinoyl-2,3,4,5-tetrahydrobenzo[f][1,4]oxazepine-8-carboxamide] | ≤ 0.1 µM |
| O=C(NO)c1ccc2c(c1)OC[C@H](c1ccccc1)N(C(=O)[C@H]1CCOC1)C2 (single isomer, unassigned) | ≤ 0.1 µM |
